In patent publication US7632972B2, “Compounds and methods for treatment of cancer and modulation of programmed cell death for melanoma and other cancer cells” (The Board of Trustees of the University of Illionis, priority 2003, dated 2009):

Test system: human tumor cell lines
Assay: NCI DTP 60 human tumor cell line screen (whole panel or cell lines not listed singly)
Type: cell-based
Conditions: NCI panel of human cancer cell lines
From the text: Selected compounds were identified for additional testing against a panel of human cancer cell lines maintained by the National Cancer Institute.
Potential anti-cancer agents are screened, and in certain instances were screened, using a screening system provided and performed by the National Cancer Institute (NCl). See http://dtp.nci.nih.gov/docs/misc/common_files/submit_compounds.html. The Developmental Therapeutics Program (DTP) of NCl operates an anti-cancer screening program. The program accepts both natural and synthetic compounds. For screening of natural products extracts, the Natural Products Branch can be contacted.
The operation of this screen utilizes 60 different human tumor cell lines, representing leukemia, melanoma and cancers of the lung, colon, brain, ovary, breast, prostate, and kidney. The aim is to prioritize for further evaluation, synthetic compounds or natural product samples showing selective growth inhibition or cell killing of particular tumor cell lines. […]
Following drug addition, the plates are incubated for an additional 48 h at 37° C., 5% CO2, 95% air, and 100% relative humidity. […] Bound stain is subsequently solubilized with 10 mM trizma base, and the absorbance is read on an automated plate reader at a wavelength of 515 nm. […]

SMILES: COc1cccc(CCNC(=O)CC(c2ccccc2)(c2ccccc2)c2ccccc2)c1 [Compound Z3]
- activity against colon cancer cells: significant activity
- activity against melanoma cells: significant activity
